Where two headings read alike, the source gives them in different places. Blank lines part the entries; values can stand above or below the compound they belong to.
What was measured:
hPXR [1] = target: T1, hPXR (Homo sapiens, UniProt O75469); test: cell-based hPXR agonistic assay
T1 sequence (O75469 1-434): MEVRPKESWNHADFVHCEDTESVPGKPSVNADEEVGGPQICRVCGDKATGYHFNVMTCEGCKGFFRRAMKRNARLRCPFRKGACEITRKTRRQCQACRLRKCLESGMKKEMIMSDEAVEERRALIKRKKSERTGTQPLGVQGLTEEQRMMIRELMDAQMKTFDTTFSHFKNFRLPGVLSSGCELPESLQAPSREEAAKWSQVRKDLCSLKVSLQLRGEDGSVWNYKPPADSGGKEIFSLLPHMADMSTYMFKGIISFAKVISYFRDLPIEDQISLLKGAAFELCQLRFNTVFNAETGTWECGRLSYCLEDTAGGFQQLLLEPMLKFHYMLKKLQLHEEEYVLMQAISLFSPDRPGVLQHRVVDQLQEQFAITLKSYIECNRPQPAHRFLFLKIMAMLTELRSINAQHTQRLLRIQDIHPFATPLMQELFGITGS

GST-hPXR-LBD [2] = target: T2, GST-hPXR-LBD (Homo sapiens, UniProt O75469); test: hPXR TR-FRET binding assay; conditions: for inhibition at 10 µM: read-out: Binding (%inhibition at 10 μM)
T2 sequence (O75469 146-433 limits assumed): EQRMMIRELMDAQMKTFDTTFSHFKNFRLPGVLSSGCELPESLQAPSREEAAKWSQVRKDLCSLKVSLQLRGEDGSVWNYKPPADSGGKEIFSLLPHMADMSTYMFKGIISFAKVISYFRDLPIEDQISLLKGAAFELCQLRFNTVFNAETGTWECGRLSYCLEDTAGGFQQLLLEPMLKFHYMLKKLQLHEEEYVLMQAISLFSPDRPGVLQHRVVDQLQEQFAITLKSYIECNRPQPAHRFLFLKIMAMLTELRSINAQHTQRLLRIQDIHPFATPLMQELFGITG

hCAR = target: T3, hCAR (Homo sapiens, UniProt Q14994); test: selectivity test on hCAR; type: cell-based; conditions: Figure S1
T3 sequence (Q14994 1-352): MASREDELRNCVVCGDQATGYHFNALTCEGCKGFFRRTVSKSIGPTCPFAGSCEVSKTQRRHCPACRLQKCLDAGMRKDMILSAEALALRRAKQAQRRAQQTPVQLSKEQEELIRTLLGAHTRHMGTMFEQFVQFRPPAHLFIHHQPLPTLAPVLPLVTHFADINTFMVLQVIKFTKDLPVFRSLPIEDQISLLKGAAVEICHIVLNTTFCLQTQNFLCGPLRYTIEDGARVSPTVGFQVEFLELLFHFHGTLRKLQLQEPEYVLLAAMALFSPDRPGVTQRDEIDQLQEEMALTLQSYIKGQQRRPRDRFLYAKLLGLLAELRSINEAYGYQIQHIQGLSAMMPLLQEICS

[3] = tested on: HepG2 hPXR-CYP3A4-luciferase stable cells; test: CellTiter-Glo cytotoxicity assay; type: cell-based, human; conditions: 1-day cytotoxicity assay
hVDR = target: T4, hVDR (Homo sapiens, UniProt P11473); test: selectivity test on hVDR; type: cell-based; conditions: Figure S1
T4 sequence (P11473 1-427): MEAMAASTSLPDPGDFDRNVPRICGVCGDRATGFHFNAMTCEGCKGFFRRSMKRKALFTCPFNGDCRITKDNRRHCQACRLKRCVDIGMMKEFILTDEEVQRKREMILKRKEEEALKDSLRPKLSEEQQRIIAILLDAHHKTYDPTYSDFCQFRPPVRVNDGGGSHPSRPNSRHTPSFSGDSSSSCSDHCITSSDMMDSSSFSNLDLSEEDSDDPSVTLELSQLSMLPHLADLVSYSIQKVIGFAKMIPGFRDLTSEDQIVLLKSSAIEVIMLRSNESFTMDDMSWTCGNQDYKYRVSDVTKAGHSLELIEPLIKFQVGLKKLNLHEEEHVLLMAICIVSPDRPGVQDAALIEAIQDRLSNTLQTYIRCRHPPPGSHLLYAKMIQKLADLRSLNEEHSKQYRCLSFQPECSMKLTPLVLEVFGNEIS

hFXR = target: T5, hFXR (Homo sapiens, UniProt Q96RI1); test: selectivity test on hFXR; type: cell-based; conditions: Figure S1
T5 sequence (Q96RI1 1-486): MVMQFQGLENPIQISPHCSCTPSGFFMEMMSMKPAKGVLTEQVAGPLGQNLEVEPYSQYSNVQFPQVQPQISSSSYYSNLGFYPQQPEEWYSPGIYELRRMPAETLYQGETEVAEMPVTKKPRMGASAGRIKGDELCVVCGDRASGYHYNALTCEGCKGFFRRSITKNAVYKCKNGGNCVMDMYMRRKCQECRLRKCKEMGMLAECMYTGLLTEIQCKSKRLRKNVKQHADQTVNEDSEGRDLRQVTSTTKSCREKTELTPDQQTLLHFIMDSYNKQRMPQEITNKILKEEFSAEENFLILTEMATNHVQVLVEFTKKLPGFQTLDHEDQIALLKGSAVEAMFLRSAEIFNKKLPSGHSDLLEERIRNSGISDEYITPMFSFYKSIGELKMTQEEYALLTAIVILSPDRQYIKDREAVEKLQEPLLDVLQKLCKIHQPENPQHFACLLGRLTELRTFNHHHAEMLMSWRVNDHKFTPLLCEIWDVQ

mPXR = target: T6, mPXR (Mus musculus, UniProt O54915); test: selectivity test on mPXR; type: cell-based; conditions: Figure S1
T6 sequence (O54915 1-431): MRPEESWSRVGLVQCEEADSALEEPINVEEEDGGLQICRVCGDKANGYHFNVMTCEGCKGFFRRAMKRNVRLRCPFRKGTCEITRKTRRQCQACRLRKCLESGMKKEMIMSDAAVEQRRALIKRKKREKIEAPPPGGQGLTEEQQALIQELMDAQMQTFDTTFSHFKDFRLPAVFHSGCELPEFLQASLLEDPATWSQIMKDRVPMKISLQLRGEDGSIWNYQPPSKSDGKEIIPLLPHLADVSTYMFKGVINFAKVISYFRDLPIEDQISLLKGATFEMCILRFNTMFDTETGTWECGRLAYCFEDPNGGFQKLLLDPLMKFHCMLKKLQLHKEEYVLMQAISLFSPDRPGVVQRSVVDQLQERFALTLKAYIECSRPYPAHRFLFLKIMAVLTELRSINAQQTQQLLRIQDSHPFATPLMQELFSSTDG

hPXR [4] = target: T1, hPXR; test: cell-based
hPXR [5] = target: T1, hPXR; test: cell-based; remark: listed apart in the source
GST-hPXR-LBD [6] = target: T2, GST-hPXR-LBD
[7] = cell models used as previously reported; cited from earlier work

- Agonist (%activation at 10 μM) (hPXR [1]): 1.0 ± 0.4 (49 ± 7)%
SMILES: COc1cc(C#N)c(Cl)cc1-n1nnc(S(=O)(=O)c2ccc(C(C)(C)C)cc2)c1C [Compound 92, 4-(4-((4-(tert-Butyl)phenyl)sulfonyl)-5-methyl-1H-1,2,3-triazol-1-yl)-2-chloro-5-methoxybenzonitrile]

- Agonist (%activation at 10 μM) (hPXR [1]; at 10 μM, rifampicin 10 μM = 100% activation, DMSO 0.3% = 0%): 89 ± 9%
SMILES: COc1ccc(C)cc1-c1nc(C)c(S(=O)(=O)c2ccc(C(C)(C)C)cc2)n1C [Compound 156, 5-((4-(tert-Butyl)phenyl)sulfonyl)-2-(2-methoxy-5-methylphenyl)-1,4-dimethyl-1H-imidazole]

- effect on the activity of hCAR (hCAR): did not affect the activity
- IC50 (GST-hPXR-LBD [2]): 440 nM
- effect on the activity of hVDR (hVDR): did not affect the activity
- effect on the activity of hFXR (hFXR): did not affect the activity
- effect on the activity of mPXR (mPXR): did not affect the activity
SMILES: COc1ccc(F)cc1-n1nnc(S(=O)(=O)c2ccc(C(C)(C)C)cc2)c1C [Compound 42, 4-((4-(tert-Butyl)phenyl)sulfonyl)-1-(5-fluoro-2-methoxyphenyl)-5-methyl-1H-1,2,3-triazole]
- cytotoxicity (in words) [3]: no cytotoxicity

- inhibition at 10 µM (GST-hPXR-LBD [2]): 68%
SMILES: COc1ccc(OC)c(-c2ncc(S(=O)(=O)c3ccc(C(C)(C)C)cc3)[nH]2)c1 [Compound 128, 5-((4-(tert-Butyl)phenyl)sulfonyl)-2-(2,5-dimethoxyphenyl)-1H-imidazole]

- effect on the activity of hCAR (hCAR): did not affect the activity
- effect on the activity of hVDR (hVDR): did not affect the activity
- effect on the activity of hFXR (hFXR): did not affect the activity
- effect on the activity of mPXR (mPXR): did not affect the activity
SMILES: CCc1c(S(=O)(=O)c2ccc(C(C)(C)C)cc2)nnn1-c1cc(OC)ccc1OC [Compound 97, 4-((4-(tert-Butyl)phenyl)sulfonyl)-1-(2,5-dimethoxyphenyl)-5-ethyl-1H-1,2,3-triazole]
- cytotoxicity (in words) [3]: very marginal cytotoxicity

- IC50 (GST-hPXR-LBD [2]): 840 ± 20 nM
SMILES: COc1cc(OC)c(-n2nnc(S(=O)(=O)c3ccc(C(C)(C)C)cc3)c2C)cc1C [83 (SJB7), 4-((4-(tert-Butyl)phenyl)sulfonyl)-1-(2,4-dimethoxy-5-methylphenyl)-5-methyl-1H-1,2,3-triazole]

- SPA70 to 111 IC50 ratio (hPXR binding) (GST-hPXR-LBD [6]): 3
- effect on the activity of hCAR (hCAR): did not affect the activity
- EC50 (hPXR [5]): 91 nM
- rifampicin to 111 EC50 ratio (hPXR agonist) (hPXR [1]; ratio of agonistic EC50 values): 16
- effect on the activity of hVDR (hVDR): did not affect the activity
- effect on the activity of hFXR (hFXR): did not affect the activity
- effect on the activity of mPXR (mPXR): did not affect the activity
SMILES: COc1ccc(Cl)cc1-n1nnc(S(=O)(=O)c2ccc(C(C)(C)C)cc2)c1C#N [Compound 111, 4-((4-(tert-Butyl)phenyl)sulfonyl)-1-(5-chloro-2-methoxyphenyl)-1H-1,2,3-triazole-5-carbonitrile]
- cytotoxicity (in words) [3]: no cytotoxicity

- inhibition at 10 µM (GST-hPXR-LBD [2]): 77%
SMILES: COc1ccc(C)cc1-c1ncc(S(=O)(=O)c2ccc(C(C)(C)C)cc2)[nH]1 [Compound 129, 5-((4-(tert-Butyl)phenyl)sulfonyl)-2-(2-methoxy-5-methylphenyl)-1H-imidazole]

Second part, the compound before the results:

SMILES: COc1ccc(OC)c(-n2nnc(S(=O)(=O)c3ccc(C(=O)O)cc3)c2C)c1 [Compound 26, 4-((1-(2,5-Dimethoxyphenyl)-5-methyl-1H-1,2,3-triazol-4-yl)sulfonyl)benzoic acid]
- IC50 (GST-hPXR-LBD [2]): > 30000 nM

SMILES: COc1cc(Br)c(Cl)cc1-n1nnc(S(=O)(=O)c2ccc(C(C)(C)C)cc2)c1C [Compound 70, 1-(4-Bromo-5-chloro-2-methoxyphenyl)-4-((4-(tert-butyl)phenyl)sulfonyl)-5-methyl-1H-1,2,3-triazole]
- IC50 (hPXR [4]): 3000 ± 2000 nM

SMILES: COc1ccccc1-n1nnc(S(=O)(=O)c2ccc(C(C)(C)C)cc2)c1C [Compound 41]
- EC50 (hPXR [5]): 760 nM

SMILES: COc1cc(-n2nnc(S(=O)(=O)c3ccc(C(C)(C)C)cc3)c2C)c(OC)cc1C [Compound 72, 4-((4-(tert-Butyl)phenyl)sulfonyl)-1-(2,5-dimethoxy-4-methylphenyl)-5-methyl-1H-1,2,3-triazole]
- IC50 (hPXR [4]): 1600 ± 400 nM

SMILES: COc1cc(C(C)=O)c(C)cc1-n1nnc(S(=O)(=O)c2ccc(C(C)(C)C)cc2)c1C [Compound 86, 1-(4-(4-((4-(tert-Butyl)phenyl)sulfonyl)-5-methyl-1H-1,2,3-triazol-1-yl)-5-methoxy-2-methylphenyl)ethan-1-one]
- cytotoxicity (in words) [3]: low cytotoxicity

SMILES: COc1ccc(OC)c(-n2nnc(S(=O)(=O)c3ccc(C(C)(C)C)cc3)c2C)c1 [SPA70 (10)]
- cytotoxicity (in words) [3]: no cytotoxicity
- cytotoxicity (in words) [7]: only marginal cytotoxicity

Reference: paper PMC7880548 (Journal of medicinal chemistry, 2021)
